ChEMBL document CHEMBL1201862, “PubChem BioAssay data set” (2004)
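Briefly, cells in 96-well plates were exposed to five compound concentrations for 48 h, and endpoints were estimated by linear interpolation. GI50 = concentration required for 50% inhibition of growth.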 The source made the active and inactive calls. Cut-off read from the data, not from the text of the source: active = GI50 up to about 1.1 µM and inactive = higher.

Tests used:
Assay in all cases: NCI anticancer screen, dose series, 48 h
786-0 = test system: 786-0
A498 = test system: A498
A549 = test system: A549
ACHN = test system: ACHN
BT-549 = test system: BT-549
CAKI-1 = test system: CAKI-1
CCRF-CEM = test system: CCRF-CEM
COLO 205 = test system: COLO 205
DU-145 = test system: DU-145
EKVX = test system: EKVX
HCC 2998 = test system: HCC 2998
HCT-116 = test system: HCT-116
HCT-15 = test system: HCT-15
HL-60 = test system: HL-60
HOP-62 = test system: HOP-62
HOP-92 = test system: HOP-92
HT-29 = test system: HT-29
Hs-578T = test system: Hs-578T
IGROV-1 = test system: IGROV-1
K562 = test system: K562
KM12 = test system: KM12
LOX IMVI = test system: LOX IMVI
M14 = test system: M14
MCF7 = test system: MCF7
MDA-MB-231 = test system: MDA-MB-231
MDA-MB-435 = test system: MDA-MB-435
MDA-N = test system: MDA-N
MOLT-4 = test system: MOLT-4
Malme-3M = test system: Malme-3M
NCI-H226 = test system: NCI-H226
NCI-H23 = test system: NCI-H23
NCI-H460 = test system: NCI-H460
NCI-H522 = test system: NCI-H522
NCI/ADR-RES = test system: NCI/ADR-RES
OVCAR-3 = test system: OVCAR-3
OVCAR-4 = test system: OVCAR-4
OVCAR-5 = test system: OVCAR-5
OVCAR-8 = test system: OVCAR-8
PC-3 = test system: PC-3
RPMI-8226 = test system: RPMI-8226
RXF 393 = test system: RXF 393
SF-268 = test system: SF-268
SF-295 = test system: SF-295
SK-MEL-28 = test system: SK-MEL-28
SK-MEL-2 = test system: SK-MEL-2
SK-MEL-5 = test system: SK-MEL-5
SK-OV-3 = test system: SK-OV-3
SN12C = test system: SN12C
SNB-19 = test system: SNB-19
SNB-75 = test system: SNB-75
SR = test system: SR
SW-620 = test system: SW-620
T47D = test system: T47D
TK-10 = test system: TK-10
U-251 = test system: U-251
UACC-257 = test system: UACC-257
UACC-62 = test system: UACC-62
UO-31 = test system: UO-31
SF-539 = test system: SF-539

Measured: GI50

NCCP(=O)(O)O
inactive: 786-0 > 100 µM | A498 > 100 µM | A549 > 100 µM | ACHN > 100 µM | BT-549 > 100 µM | CAKI-1 > 100 µM | CCRF-CEM > 100 µM | COLO 205 > 100 µM | DU-145 > 100 µM | EKVX > 100 µM | HCC 2998 > 100 µM | HCT-116 > 100 µM | HL-60 > 100 µM | HOP-62 > 100 µM | HOP-92 > 100 µM | HT-29 > 100 µM | Hs-578T > 100 µM | IGROV-1 > 100 µM | K562 > 100 µM | KM12 > 100 µM | LOX IMVI > 100 µM | M14 > 100 µM | MCF7 > 100 µM | MDA-MB-231 > 100 µM | MDA-MB-435 > 100 µM | MDA-N > 100 µM | MOLT-4 > 100 µM | Malme-3M > 100 µM | NCI-H226 > 100 µM | NCI-H23 > 100 µM | NCI-H460 > 100 µM | NCI-H522 > 100 µM | NCI/ADR-RES > 100 µM | OVCAR-3 > 100 µM | OVCAR-4 > 100 µM | OVCAR-5 > 100 µM | OVCAR-8 > 100 µM | PC-3 > 100 µM | RPMI-8226 > 100 µM | RXF 393 > 100 µM | SF-268 > 100 µM | SF-295 > 100 µM | SK-MEL-28 > 100 µM | SK-MEL-2 > 100 µM | SK-MEL-5 > 100 µM | SK-OV-3 > 100 µM | SN12C > 100 µM | SNB-19 > 100 µM | SNB-75 > 100 µM | SR > 100 µM | SW-620 > 100 µM | T47D > 100 µM | TK-10 > 100 µM | U-251 > 100 µM | UACC-257 > 100 µM | UACC-62 > 100 µM | UO-31 > 100 µM
> 100 µM: HCT-15

Cc1ccc([N+](=O)[O-])cc1S(=O)(=O)Nc1ccc(C(=O)/C=C/c2cccs2)cc1
inactive: 786-0 18.4 µM | A498 15.3 µM | A549 91.6 µM | ACHN 29.4 µM | BT-549 18.7 µM | CAKI-1 16.2 µM | COLO 205 24.1 µM | DU-145 23.3 µM | EKVX 20.1 µM | HCC 2998 18.5 µM | HCT-116 18.2 µM | HL-60 28.3 µM | HOP-62 22.1 µM | HOP-92 27.9 µM | HT-29 18.9 µM | Hs-578T 36.3 µM | IGROV-1 36.6 µM | K562 29 µM | KM12 16.6 µM | LOX IMVI 20.7 µM | M14 20.1 µM | MCF7 15.7 µM | MDA-MB-231 16.3 µM | MDA-MB-435 17.6 µM | MDA-N 25.2 µM | MOLT-4 22.2 µM | Malme-3M 27.4 µM | NCI-H226 22.5 µM | NCI-H23 20.2 µM | NCI-H460 51.5 µM | NCI-H522 19.2 µM | NCI/ADR-RES 24.9 µM | OVCAR-3 20.8 µM | OVCAR-4 22.5 µM | OVCAR-5 31.5 µM | OVCAR-8 37.4 µM | PC-3 21.1 µM | RPMI-8226 20.7 µM | RXF 393 17.7 µM | SF-268 32 µM | SF-295 32.7 µM | SF-539 27.2 µM | SK-MEL-28 23.1 µM | SK-MEL-2 20.6 µM | SK-MEL-5 16.9 µM | SK-OV-3 44.1 µM | SN12C 24.2 µM | SNB-19 21.5 µM | SNB-75 19.3 µM | SR 18.9 µM | SW-620 22.4 µM | T47D 25.6 µM | TK-10 56.2 µM | UACC-257 20.5 µM | UACC-62 16.3 µM | UO-31 20 µM
active: CCRF-CEM 0.271 µM
23.4 µM: HCT-15

Nc1ccc(-c2nc3cc(F)ccc3s2)cc1Br
active: ACHN 0.621 µM | COLO 205 0.377 µM | HCC 2998 < 0.01 µM | HCT-116 0.0552 µM | HT-29 0.368 µM | IGROV-1 < 0.01 µM | MCF7 < 0.0111 µM | NCI-H226 0.0504 µM | NCI-H460 0.0458 µM | OVCAR-3 0.0964 µM | OVCAR-5 0.0904 µM | SR < 0.01 µM | T47D 0.038 µM | TK-10 0.0306 µM
0.144 µM: HCT-15
inactive: 786-0 59 µM | A498 14.7 µM | A549 8.97 µM | BT-549 7.69 µM | CAKI-1 3.99 µM | CCRF-CEM > 100 µM | DU-145 55.7 µM | EKVX 2.71 µM | HL-60 4.71 µM | HOP-62 12.7 µM | HOP-92 29.1 µM | Hs-578T 36.7 µM | KM12 10.4 µM | LOX IMVI > 51.2 µM | M14 > 95.5 µM | MDA-MB-231 8.95 µM | MDA-MB-435 > 100 µM | MDA-N > 100 µM | MOLT-4 > 100 µM | Malme-3M 33 µM | NCI-H522 > 42.8 µM | NCI/ADR-RES > 56.8 µM | OVCAR-4 23.8 µM | OVCAR-8 28.7 µM | PC-3 26.6 µM | RPMI-8226 > 78.2 µM | RXF 393 25.5 µM | SF-268 42 µM | SF-295 23.5 µM | SF-539 > 41.5 µM | SK-MEL-28 > 100 µM | SK-MEL-2 > 89.5 µM | SK-MEL-5 33.1 µM | SK-OV-3 > 59 µM | SN12C > 73.5 µM | SNB-19 53.3 µM | SNB-75 18.3 µM | SW-620 > 93.8 µM | U-251 18.1 µM | UACC-257 > 100 µM | UACC-62 > 84.1 µM | UO-31 37.6 µM
